“Also recorded” adds a separate entry of the source.
Legend:
[1] = tested on: bovine adrenal medullary microvascular endothelial cells; assay: Recovery of endothelial cells after tunicamycin treatment (parental line); assay type: cell-based
Experimental: If the behavior of tunicamycin observed here is truly anti-angiogenic and is not due to cytotoxicity then cells must recover following a tunicamycin treatment that is shorter in duration, and the concentrations are moderate. […] On the other hand, the recovery was quantitative from a 24 hour exposure to tunicamycin at all concentrations (data not shown).

[2] = tested on: bovine adrenal medullary microvascular endothelial cells; assay: Capillary endothelial cell growth and proliferation (cell count in hemacytometer); assay type: cell-based
Experimental: Cells in the amount of 2.0×10^4 were seeded per well in 24-well clusters in 1 ml complete EMEM containing 10% (v/v) serum and allowed to grow for 72 hours. Media were removed and the cells were washed twice with phosphate-buffer saline, pH 7.4 (PBS). Cells were synchronized by incubating for 48 hours in 2 mM hydroxyurea in serum-free EMEM with glutamine (2 mM) and one-third of penicillin-streptomycin used in a regular culture condition, followed by incubating 24 hours in serum-free EMEM, as discussed in CAO et al., “Modified Method of Mammalian Cell Synchronization Improves Yield and Degree of Synchronization”, Exp. Cell Res., 193:405-410 (1991), the disclosure of which is herein incorporated by reference in its entirety.
For proliferation assay, cells were trypsinized and counted in a hemacytometer. Viability of cells was determined by trypan blue (0.4% (v/v)) exclusion. Statistical analysis was carried out by StatView II software (Macintosh). Quantitation of cellular differentiation was carried out by observing under a Nikon AlphaShot inverted microscope, and counting the number of capillary lumen-like structures in five randomly selected fields per sample.
Synchronized cells, as described in Example 1, were cultured at 37° C. in complete EMEM containing fetal bovine serum (1% (v/v), 2% (v/v), or 10% (v/v), or complete EMEM with 2% (v/v) fetal bovine serum containing 1 ng/ml −100 ng/ml of bFGF/FGF-2, or containing 0.5 μg/ml to 5.0 μg/ml tunicamycin (lot number 10922120-07 from Boehringer-Mannheim, Indianapolis, Ind.). In each case, the cellular growth and proliferation was monitored by trypan blue exclusion, by counting the cell number, and by their ability to process through the cell cycle by flow cytometry.
Proliferation and Differentiation of Capillary Endothelial Cells: 2.0×10^4 cells were seeded per well in 24-well clusters in 1 ml complete EMEM containing 10% (v/v) serum and allowed to grow for 72 hours. Media were removed and the cells were washed twice with phosphate-buffer saline, pH 7.4 (PBS). […] Cells were routinely monitored by light microscopy. For proliferation assay, cells were trypsinized and counted in a hemacytometer. Viability of cells was determined by trypan blue (0.4% (v/v)) exclusion. […] Quantitation of cellular differentiation was carried out by observing under a Nikon AlphaShot inverted microscope, and counting the number of capillary lumen-like structures in five randomly selected fields per sample. The results were expressed as percent of its corresponding control after normalization of cell numbers. Analysis of Cell Cycle by Flow Cytometry: Assessment of the cell cycle was determined by propidium iodide staining of fixed cell nuclei followed by flow cytometry in a FacSort (Beckton Dickinson) according to the method of Krishan (1975) as modified by Vindelov (1977), as discussed in KRISHAN, “Rapid Flow Cytometric Analysis of Mammalian Cell Cycle by Propidium Iodide Staining”, J. Cell Biol. 66:188-195 (1975); and VINDELOV, “Flow Cytometric Analysis of Nuclear DNA in Cells from Solid Tumors and Cell Suspensions”, Virchows Arch (B), 24:227-231 (1977), the disclosures of which are herein incorporated by reference in their entireties. […]

tunicamycin
recovery of cells in 5 days ([1]; 10 ng/ml tunicamycin for 48 hours): full recovery | recovery of cells ([1]; 1 μg/ml tunicamycin for 48 hours): approximately 40% | recovery of cells ([1]; 10 μg/ml tunicamycin for 48 hours): 12% | recovery of cells ([1]; 24 hour exposure to tunicamycin at all concentrations (data not shown)): quantitative | recovery of cells ([1]; tunicamycin for 72 hours or longer at 1 μg/ml or 10 μg/ml): never recovered | effect on cell number / proliferation ([2]; 1 μg/ml tunicamycin, 2% (v/v) serum, monitored up to 5 days): reduced the cell proliferation; also recorded: number of cells started declining; also recorded: started declining, and almost disappeared | reversibility of growth reduction ([2]; tunicamycin 0.5-5.0 μg/ml): reversible

Reference: patent publication US7361643B2, “Methods for inhibiting angiogenesis” (University of Puerto Rico, priority 2000, dated 2008)
